# Experimental data: US12004868B2, “Liposomal mitigation of drug-induced inhibition of the cardiac IKr channel” (Signpath Pharma, Inc., priority 2011, dated 2024)
# Counter-ions that a name gives are not always drawn. Like-named read-outs stand apart in the source and are kept apart here. Marks after values point to notes of the source that are not given here.
# Assays:
# [1] = cited from earlier work; for incidence of QT prolongation: patients, Aloxi at doses above 2.25 mg, sotalol 1288 patients, vandetanib grade 3/4
# calcium channel = settings: literature; read-out: calcium channel blocking EC50; cited from earlier work
# rabbit heart [2] = system: rabbit heart
# NaV1.5 = NaV1.5 (Homo sapiens, UniProt Q14524); settings: literature; read-out: NaV1.5 IC50 (Doherty et al); cited from earlier work
# CaV = settings: literature; read-out: CaV IC50 (Doherty et al); cited from earlier work
# [3] = cited from earlier work; for Cmax: read-out: steady state Cmax
# [4] = crizotinib intravenously; nilotinib orally up to 600 mg/kg; cited from earlier work
# in vitro rabbit heart [5] = test: In vitro rabbit heart QTc intervals; parameters: dose or concentration left out as unconfirmed; settings: liposomes 9:1
# in vitro rabbit hearts = test: Left ventricular pressure in in vitro rabbit hearts
# IKs = IKs (Homo sapiens, UniProt P51787); settings: literature; cited from earlier work
# [6] = cited from earlier work
# hERG = hERG (Homo sapiens, UniProt Q12809); settings: cited from earlier work
# [7] = system: isolated rabbit Purkinje fibers; settings: 5 μM; cited from earlier work
# rabbit heart [8] = system: rabbit heart; remark: listed apart in the source
# in vitro rabbit heart [9] = system: in vitro rabbit heart
# [10] = cited from earlier work; remark: listed apart in the source
# [11] = crizotinib 2 mg/kg, vs baseline
# [12] = crizotinib 3 mg/kg, vs baseline
# [13] = cancer patients given 500 mg BID
# [14] = children with cancer, 280 mg/m^2 BID
# [15] = read-out: hERG IC50, literature
# [16] = Chinese patients given 400 mg BID
# [17] = cancer patients given 400 mg BID
# Sequence of hERG (Q12809 whole entry): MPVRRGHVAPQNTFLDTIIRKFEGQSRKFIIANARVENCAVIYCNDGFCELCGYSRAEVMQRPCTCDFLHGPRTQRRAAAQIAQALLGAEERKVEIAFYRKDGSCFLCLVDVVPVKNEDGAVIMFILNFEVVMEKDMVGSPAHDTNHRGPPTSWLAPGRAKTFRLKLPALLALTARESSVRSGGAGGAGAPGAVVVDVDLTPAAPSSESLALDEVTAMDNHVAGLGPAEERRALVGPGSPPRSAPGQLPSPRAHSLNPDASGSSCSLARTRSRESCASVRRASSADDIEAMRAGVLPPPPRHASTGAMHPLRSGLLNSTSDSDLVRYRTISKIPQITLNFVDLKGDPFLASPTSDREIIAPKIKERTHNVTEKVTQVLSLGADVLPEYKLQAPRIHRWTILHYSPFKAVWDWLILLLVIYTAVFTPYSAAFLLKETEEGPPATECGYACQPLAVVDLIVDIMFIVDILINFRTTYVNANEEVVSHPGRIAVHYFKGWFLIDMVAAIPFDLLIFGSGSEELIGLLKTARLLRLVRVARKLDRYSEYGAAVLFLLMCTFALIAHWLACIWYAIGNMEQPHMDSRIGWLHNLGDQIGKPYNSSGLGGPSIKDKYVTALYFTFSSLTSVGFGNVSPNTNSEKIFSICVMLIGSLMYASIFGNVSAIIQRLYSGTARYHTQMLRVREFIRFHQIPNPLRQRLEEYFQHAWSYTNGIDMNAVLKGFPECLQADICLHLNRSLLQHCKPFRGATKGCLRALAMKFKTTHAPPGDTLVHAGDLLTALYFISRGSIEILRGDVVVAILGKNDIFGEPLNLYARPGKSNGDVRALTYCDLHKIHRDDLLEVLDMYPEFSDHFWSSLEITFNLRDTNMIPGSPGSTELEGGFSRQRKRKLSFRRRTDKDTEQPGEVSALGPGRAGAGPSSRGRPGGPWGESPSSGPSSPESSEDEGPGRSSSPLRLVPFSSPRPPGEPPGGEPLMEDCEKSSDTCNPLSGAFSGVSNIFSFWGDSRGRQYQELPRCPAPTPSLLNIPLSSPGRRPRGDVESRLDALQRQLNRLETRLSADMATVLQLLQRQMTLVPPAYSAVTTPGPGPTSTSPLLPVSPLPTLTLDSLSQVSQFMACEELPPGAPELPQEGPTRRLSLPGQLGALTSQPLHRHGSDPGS
# Sequence of IKs (P51787 whole entry): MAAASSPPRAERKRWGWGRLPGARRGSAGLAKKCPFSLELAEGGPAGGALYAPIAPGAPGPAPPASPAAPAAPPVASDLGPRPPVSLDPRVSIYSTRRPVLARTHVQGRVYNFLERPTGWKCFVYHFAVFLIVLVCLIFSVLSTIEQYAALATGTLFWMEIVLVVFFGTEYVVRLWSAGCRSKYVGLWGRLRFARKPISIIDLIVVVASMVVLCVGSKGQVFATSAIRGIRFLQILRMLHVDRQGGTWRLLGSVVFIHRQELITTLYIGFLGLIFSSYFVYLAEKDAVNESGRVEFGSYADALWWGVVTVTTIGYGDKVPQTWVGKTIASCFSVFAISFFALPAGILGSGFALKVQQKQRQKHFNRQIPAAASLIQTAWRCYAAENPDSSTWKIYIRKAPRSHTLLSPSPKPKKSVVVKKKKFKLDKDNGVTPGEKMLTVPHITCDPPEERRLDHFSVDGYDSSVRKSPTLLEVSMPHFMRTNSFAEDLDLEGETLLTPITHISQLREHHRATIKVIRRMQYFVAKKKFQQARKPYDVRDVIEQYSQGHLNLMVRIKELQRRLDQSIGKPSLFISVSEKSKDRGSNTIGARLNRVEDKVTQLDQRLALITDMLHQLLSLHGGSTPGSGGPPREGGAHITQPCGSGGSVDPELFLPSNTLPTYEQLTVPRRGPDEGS
# Sequence of NaV1.5 (Q14524 whole entry): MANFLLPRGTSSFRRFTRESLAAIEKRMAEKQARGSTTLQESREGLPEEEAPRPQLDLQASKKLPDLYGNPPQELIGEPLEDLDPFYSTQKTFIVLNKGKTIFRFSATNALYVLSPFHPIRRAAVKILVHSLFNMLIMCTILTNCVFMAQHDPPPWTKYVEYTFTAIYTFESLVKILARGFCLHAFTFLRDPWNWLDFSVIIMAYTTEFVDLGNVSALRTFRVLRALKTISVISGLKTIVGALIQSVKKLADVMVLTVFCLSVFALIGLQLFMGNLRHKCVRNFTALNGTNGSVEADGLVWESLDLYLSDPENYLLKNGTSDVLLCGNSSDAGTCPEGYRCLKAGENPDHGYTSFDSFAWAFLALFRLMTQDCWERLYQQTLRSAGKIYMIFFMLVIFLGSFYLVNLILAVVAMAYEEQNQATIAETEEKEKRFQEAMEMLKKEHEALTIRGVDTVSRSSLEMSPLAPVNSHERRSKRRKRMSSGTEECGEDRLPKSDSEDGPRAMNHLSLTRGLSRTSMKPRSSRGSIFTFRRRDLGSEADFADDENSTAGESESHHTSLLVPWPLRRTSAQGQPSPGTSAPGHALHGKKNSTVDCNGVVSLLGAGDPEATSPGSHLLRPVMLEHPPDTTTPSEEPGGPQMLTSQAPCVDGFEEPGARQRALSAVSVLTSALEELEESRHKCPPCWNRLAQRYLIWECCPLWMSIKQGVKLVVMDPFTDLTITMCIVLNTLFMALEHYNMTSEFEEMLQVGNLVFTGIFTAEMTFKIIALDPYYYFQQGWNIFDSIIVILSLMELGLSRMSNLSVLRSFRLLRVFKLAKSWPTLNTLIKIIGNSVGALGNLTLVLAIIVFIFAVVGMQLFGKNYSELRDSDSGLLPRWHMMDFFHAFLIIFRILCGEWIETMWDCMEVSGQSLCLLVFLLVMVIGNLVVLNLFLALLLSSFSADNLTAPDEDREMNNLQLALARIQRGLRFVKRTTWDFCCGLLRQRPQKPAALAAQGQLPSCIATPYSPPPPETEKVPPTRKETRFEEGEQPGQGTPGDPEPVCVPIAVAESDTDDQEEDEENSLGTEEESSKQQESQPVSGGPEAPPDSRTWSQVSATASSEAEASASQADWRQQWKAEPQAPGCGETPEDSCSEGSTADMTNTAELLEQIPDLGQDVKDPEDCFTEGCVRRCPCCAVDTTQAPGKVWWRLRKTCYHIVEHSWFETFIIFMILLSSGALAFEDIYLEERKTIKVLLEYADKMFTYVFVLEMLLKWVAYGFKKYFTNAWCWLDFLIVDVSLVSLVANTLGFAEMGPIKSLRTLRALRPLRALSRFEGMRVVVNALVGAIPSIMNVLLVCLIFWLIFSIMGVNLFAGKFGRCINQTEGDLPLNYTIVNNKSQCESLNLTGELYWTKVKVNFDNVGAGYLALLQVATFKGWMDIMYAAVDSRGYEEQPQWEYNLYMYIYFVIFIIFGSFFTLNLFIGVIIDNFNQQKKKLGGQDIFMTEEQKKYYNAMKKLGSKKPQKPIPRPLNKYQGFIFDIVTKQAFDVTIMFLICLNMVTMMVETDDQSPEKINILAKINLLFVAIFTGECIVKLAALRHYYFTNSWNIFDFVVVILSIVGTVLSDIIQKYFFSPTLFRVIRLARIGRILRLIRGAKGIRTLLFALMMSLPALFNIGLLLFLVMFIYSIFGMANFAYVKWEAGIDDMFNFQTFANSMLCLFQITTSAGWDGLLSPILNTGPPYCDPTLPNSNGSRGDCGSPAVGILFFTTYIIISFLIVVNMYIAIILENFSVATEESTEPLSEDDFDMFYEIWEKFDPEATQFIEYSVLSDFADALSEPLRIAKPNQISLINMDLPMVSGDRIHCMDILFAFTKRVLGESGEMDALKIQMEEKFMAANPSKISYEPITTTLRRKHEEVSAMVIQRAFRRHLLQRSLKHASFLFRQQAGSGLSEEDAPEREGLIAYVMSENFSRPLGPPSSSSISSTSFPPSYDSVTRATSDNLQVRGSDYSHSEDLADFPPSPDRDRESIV
compound,measurement,setting,value
"O=C1c2cccc3c2[C@H](CCC3)CN1[C@@H]1CN2CCC1CC2 [Aloxi, palonasitron HCL]",incidence of EKG adverse events,[1]; doses above 2.25 mg,> 2%
same,incidence of bradycardia,[1]; doses above 2.25 mg,4%
same,incidence of QT prolongation,[1],5%
CC(C)COCC(CN(Cc1ccccc1)c1ccccc1)N1CCCC1 (centres unmarked) [Bepridil],EC50,calcium channel,10 µM
C[C@@H](Oc1cc(-c2cnn(C3CCNCC3)c2)cnc1N)c1c(Cl)ccc(F)c1Cl [Crizotinib],QRS Intervals,rabbit heart [2]; crizotinib 1 mg/kg IV,48 ms
same,QT Intervals,rabbit heart [2]; crizotinib 1 mg/kg IV,189* ms
same,QTc interval (Van der Water),rabbit heart [2]; crizotinib 1 mg/kg IV,251* ms
same,QRS Intervals,rabbit heart [2]; crizotinib 2 mg/kg IV,53* ms
same,QT Intervals,rabbit heart [2]; crizotinib 2 mg/kg IV,205* ms
same,QTc interval (Van der Water),rabbit heart [2]; crizotinib 2 mg/kg IV,264* ms
same,RR Intervals,rabbit heart [2]; crizotinib 2 mg/kg IV,324* ms
same,QT interval prolongation,rabbit heart [2]; [11],34 ms
same,RR interval prolongation,rabbit heart [2]; [11],67 ms
same,QRS Intervals,rabbit heart [2]; crizotinib 3 mg/kg IV,56* ms
same,QT Intervals,rabbit heart [2]; crizotinib 3 mg/kg IV,218* ms
same,QTc interval (Van der Water),rabbit heart [2]; crizotinib 3 mg/kg IV,273* ms
same,RR Intervals,rabbit heart [2]; crizotinib 3 mg/kg IV,367* ms
same,PR interval prolongation,rabbit heart [2]; [12],23 ms
same,QRS interval prolongation,rabbit heart [2]; [12],13 ms
same,QT interval prolongation,rabbit heart [2]; [12],48 ms
same,QTc interval prolongation (Van der Water),rabbit heart [2]; [12],38 ms
same,RR interval prolongation,rabbit heart [2]; [12],110 ms
same,RR Intervals,rabbit heart [2]; crizotinib loading dose 1 mg/kg IV,294* ms
same,IC50,NaV1.5,3.5 µM
same,IC50,CaV,3.1 µM
same,steady state Cmax,[3]; [13],650 ng/mL
same,Cmax,[3]; [13],1500 nM
same,steady state Cmax,[3]; [14],630 ng/mL
same,Cmax,[3]; [14],1400 nM
same,ECG effect in dogs (in words),[4],"increased PR-, QRS- and QT-intervals"
same,effect on the QTc interval of in vitro rabbit hearts (in words),in vitro rabbit heart [5],dose dependent prolongation of the QTc interval
same,effect on LVP (in words),in vitro rabbit hearts,decrease in LVP
COc1cccc2c1C(=O)c1c(O)c3c(c(O)c1C2=O)C[C@@](O)(C(=O)CO)C[C@@H]3O[C@H]1C[C@H](N)[C@H](O)[C@H](C)O1 [Doxorubicin],IC50,IKs,4.78 µM
same,QTc prolongation,[6]; 30 uM,13%
CCCCc1oc2ccc(NS(C)(=O)=O)cc2c1C(=O)c1ccc(OCCCN(CCCC)CCCC)cc1 [Dronedarone],IC50,hERG; [15],0.07 µM
same,IC50,"hERG; read-out: hERG IC50, wild type hERG tails at −40 mV following activation at +30 mV",0.059 µM
O=C(CCCN1CCC(O)(c2ccc(Cl)cc2)CC1)c1ccc(F)cc1 [Haloperidol],hERG blocker potency (in words),hERG,high potency hERG blocker
CS(=O)(=O)CCNCc1ccc(-c2ccc3ncnc(Nc4ccc(OCc5cccc(F)c5)c(Cl)c4)c3c2)o1 [Lapatinib],action potential duration (in words),[7],prolong action potential duration
CCC(=O)C(CC(C)N(C)C)(c1ccccc1)c1ccccc1 (centres unmarked) [Methadone],IC50,hERG; [15],4.8 µM
COc1c(N2C[C@@H]3CCCN[C@@H]3C2)c(F)cc2c(=O)c(C(=O)O)cn(C3CC3)c12 [Moxifloxacin],QTc prolongation,[6]; 100 uM,22%
Cc1cn(-c2cc(NC(=O)c3ccc(C)c(Nc4nccc(-c5cccnc5)n4)c3)cc(C(F)(F)F)c2)cn1 [Nilotinib],PR Intervals,rabbit heart [8]; nilotinib 2 mg/kg IV,78 ms
same,QRS Intervals,rabbit heart [8]; nilotinib 2 mg/kg IV,44* ms
same,QT Intervals,rabbit heart [8]; nilotinib 2 mg/kg IV,182* ms
same,QTc Intervals (Van der Water),rabbit heart [8]; nilotinib 2 mg/kg IV,245* ms
same,PR Intervals,rabbit heart [8]; nilotinib 4 mg/kg IV,80 ms
same,QRS Intervals,rabbit heart [8]; nilotinib 4 mg/kg IV,46* ms
same,QT Intervals,rabbit heart [8]; nilotinib 4 mg/kg IV,201* ms
same,QTc Intervals (Van der Water),rabbit heart [8]; nilotinib 4 mg/kg IV,262* ms
same,RR Intervals,rabbit heart [8]; nilotinib 4 mg/kg IV,307 ms
same,QRS interval prolongation,"rabbit heart [8]; nilotinib 4 mg/kg, vs baseline",6 ms
same,QT interval prolongation,"rabbit heart [8]; nilotinib 4 mg/kg, vs baseline",41 ms
same,QTc interval prolongation,"rabbit heart [8]; nilotinib 4 mg/kg, vs baseline",36 ms
same,RR Intervals,rabbit heart [8]; nilotinib loading dose 2 mg/kg IV,273 ms
same,effect on the QTc interval of in vitro rabbit hearts (in words),in vitro rabbit heart [9],dose dependent prolongation of the QTc interval
same,IC50,CaV,> 3 µM
same,steady state Cmax,[3]; [16],2161 ng/mL
same,Cmax,[3]; [16],4100 nM
same,steady state Cmax,[3]; [17],1754 ng/mL
same,Cmax,[3]; [17],3300 nM
[K+] [Potassium],reduction of the QTc interval,[10]; plasma concentration raised by 1.5 mEq/L above baseline,24%
COc1ccc(CN(CCN(C)C)c2ccccn2)cc1 [Pyrilamine],hERG blocker potency (in words),hERG,low potency hERG blocker
CC(C)NCC(O)c1ccc(NS(C)(=O)=O)cc1 (centres unmarked) [Sotalol],incidence of QT prolongation,[1],2%
COc1cc2c(Nc3ccc(Br)cc3F)ncnc2cc1OCC1CCN(C)CC1 [Vandetanib],incidence of QT prolongation,[1],> 5%
CC(=O)Oc1ccc2c3c1O[C@H]1[C@@H](OC(C)=O)C=C[C@H]4[C@@H](C2)N(C)CC[C@@]341 [heroin],IC50,hERG,427 µM
CC(C)NCC(O)COc1cccc2ccccc12 (centres unmarked) [propranolol],decrease of risk of cardiac events,[10]; LQT1,81%
same,subjects still developing cardiac events on adequate treatment,[10]; LQT1,10%
same,subjects still developing cardiac events,[10]; LQT2,23%
same,decrease of cardiac event risk,[10]; LQT2 subjects,59%
same,subjects developing cardiac events on adequate treatment,[10]; LQT3,32%
Arsenic trioxide,hERG blocker potency (in words),hERG; literature,ineffective hERG blocker
same,IC50,hERG; [15],> 300 µM
